These results are taken from patent US5079239A, “Sterol disulfates and methods of use” (Harbor Branch Oceanographic Institution, Inc., priority 1990, dated 1992).

Converted amounts (≈) assume the structure as drawn. Like-named read-outs stand apart in the source and are kept apart here.

Series [1] can be described thus: 50% growth inhibition (toxicity) in HIV assay. Format: cell-based. The method, then: (§1) Antiviral activity on crude extracts is expressed by percent antiviral activity or by using the minus and plus values stated above. The EC50 of an antiviral drug represents the concentration of drug that results in 50% reduction of the viral cytopathic effect and the IC50 represents the concentration resulting in 50% growth inhibition. These values are determined from graphs constructed from the raw data. The in vitro therapeutic index (TI) is the ratio of IC50 /EC50.

The next series concerns CRFK cells. Briefly: Toxicity for CRFK cells (neutral red or MTT assay), FeLV test. Format: cell-based. As for the experimental part: A. Determination of Toxicity of Samples for CRFK Cells with Neutral Red Assay or MTT Assay
This assay is a modification of a procedure provided in detail by Dr. Ellen Borenfreund from Rockefeller University. Borenfreund, E., and J. A. Puerner (1984) "A Simple Quantitative Procedure Using Monolayer Cultures for Cytotoxicity Assays (HTD/NR-90)," J. Tissue Culture Methods 9:7-9.
b. MTT is diluted in D-MEM maintenance medium at a concentration of 1 mg per ml. For the toxicity test 75 microliters are added to each well of a 96-well plate without removing any medium. The plates are incubated for 6 hours at 37° C. At the end of the incubation period the medium is removed. If the cell layer is adherent, plates are not centrifuged to bring the cells down. CRFK is an adherent cell line, and for the MTT assay, no centrifugation is required. To each well 200 microliters of isopropyl alcohol are added. The formazan crystals are dissolved. After mixing, the plates are read with a plate reader at a wavelength of 570 nm. Toxicity percentages are determined the same as for neutral red.
as §1
For orientation: Tetrazolium dyes change colour on reduction, which living cells bring about.

Another series deals with murine splenocytes. Put plainly: Two-way mixed lymphocyte reaction (MLR). Format: cell-based, mouse (BALB/c and C57BL/6J). As for the experimental part:
The pure compound was tested in the two-way mixed lymphocyte reaction (MLR) and a lymphocyte viability assay (LCV) at 500, 50, 5, and 0.5 μg/ml, using murine splenocytes. Cellular proliferation was measured using incorporation of ^3 H-thymidine. Responses were reported as a percent of the positive MLR or LCV control.
1. Murine splenocyte suspensions were prepared separately from BALB/c and C57BL/6J mice. Spleens were aseptically removed and homogenized in RPMI 1640 tissue culture medium (TCM), supplemented with 10% fetal calf serum, 2% 1-glutamine, 15 mM HEPES, 1% antibiotic-antimycotic solution, and 25 μg/ml gentamycin (GIBCO). The cell concentrations were adjusted to 2.5×10^6 cells/ml. Aliquots of each cell population were removed to separate tubes, and the remaining two cell suspensions combined to one tube.
2. Serial, log10 dilutions of the pure compound were made in absolute ethanol, and 10 μl of each dilution were added to wells of microtiter test plates, and allowed to dry.
3. A volume of 0.2 ml of the combined splenocyte suspensions was added to triplicate test wells. Positive control wells received combined splenocyte suspensions in the absence of the test compounds. Negative control wells consisted of separate (not mixed) splenocyte suspensions cultured in the absence of the test compounds.
4. Plates were incubated in 5% CO2 at 37° C. for 86 hours.
5. A volume of 0.05 ml of ^3 H-thymidine (20 (μCi/ml) was added to each well, and the plates incubated in 5% CO2 at 37° C. for an additional 5 hours.
6. The contents of each well of the microtiter plates were harvested onto glass fiber filter strips, and the resulting filter discs placed in scintillation vials to which 2.0 ml of scintillation fluid was added.
7. The amount of incorporated ^3 H-thymidine was determined by counting the vials in a liquid scintillation counter.
8. Triplicate counts were averaged, and the data reported as a percentage of the positive control.

The subject of series [2] is human immunodeficiency virus (HIV). Briefly: HIV (AIDS virus) antiviral assay. Format: cell-based. The method, then:
as §1

The test system of series [3] is feline leukemia virus (FeLV). Put plainly: Feline leukemia virus (FeLV) antiviral drug test. Format: cell-based. The note with it: for EC50: Feline leukemia virus; for TI: in vitro therapeutic index, ratio of IC50/EC50, FeLV; for activity against the feline leukemia virus: result in words, Tables 1 through 3.
Excerpt: Feline leukemia viruses belong to the retrovirus family. Diseases caused by members of this family in cats have clinical manifestations similar to symptoms observed in humans with diseases caused by the human immunodeficiency viruses. Feline leukemia virus was selected as a representative member of the retrovirus family to use as a model for drug testing to search for compounds effective in preventing viral infection and replication. Cell lines were provided by Hansen Veterinary Immunology, and reagents and protocols for the ELISA assay can be purchased from the same company.
as §1

For another series, the system named is P388. Put plainly: Standard P388 assay (tumor cell growth inhibition). Format: cell-based. The text has this: HB100 has also been tested to determine its activity in inhibiting the growth of tumor cells.
In series [4] the test system is mouse coronavirus A59 (MHV-A59). Put plainly: Antiviral assay for mouse coronavirus A59 (CPE). Further details: key to activity: +++: complete inhibition of CPE and cell fusion; ++: partial inhibition; +: partial inhibition; +/-: partial inhibition; -: no protection. Format: cell-based, mouse hepatitis virus strain MHV-A59. As for the experimental part:
(§2) The antiviral assay for A59 is a cytopathic test (CPE). Susceptible cells are infected with the virus at a dose that infects most of the cells and produces CPE. The characteristic CPE observed is the formation of syncytia. Compounds and extracts which inhibit the CPE are referred to as active samples.
(§3) 1. NCTC clone 1469 is a derivative of mouse liver.
1. Mouse hepatitis virus strain MHV-A59 classified as a coronavirus.
1. Dilute drug or extract for test in the appropriate solvent.
2. Add 20 μl per tube or well.
3. Allow the solvent to evaporate under the laminar flow hood.
4. Dilute the MHV-A59 in Dulbecco's phosphate buffered saline with Ca^++ and Mg^++ to the appropriate predetermined dilution for the lot number currently in use.
5. Remove medium from wells of 24 well plate containing NCTC 1469 cells seeded 24 hours earlier.
6. Medium can be removed by pouring the fluid from the plate and blotting it on a sterile towel.
7. Add 200 lambda of diluted virus to each test well. Add PBS to control wells.
8. Incubate cells and virus for 1 hour at 37° C.
9. Pour off supernatant at end of incubation period.
10. To each glass tube add 10 lambda of dimethyl sulfoxide (DMSO). The purpose for the DMSO is to solubilize the drug. If it is known that the drug under test is water soluble, then the DMSO is not necessary. However, in cases of testing unknown compounds, DMSO may be added, but DMSO causes some toxicity. Since differences have been noted with and without DMSO, the preferred technique is to test the sample under both conditions.
11. Add 1 ml of maintenance medium to each glass tube.
12. Pour the contents of the glass tube into the corresponding well of the tissue culture plate.
13. Incubate infected cells at 37° C. and read the following day.
14. At 12 hours, areas of cell fusion are quite apparent and can be detected both visually and microscopically.
15. […]
To assist in visual interpretation of the data, the antiviral activity is scored from a minus to a three plus based on the percentage of inhibition of viral cytopathic effects. […]

The nature of series [5]: Cytotoxicity scoring in coronavirus A59 assay. The conditions noted are these: mouse, nctc 1469 cells, read-out: toxicity. Format: cell-based.
Excerpt: as §2, §3
100%=complete cell destruction
75%=partial cell destruction
50%=partial cell destruction
25%=partial cell destruction

Setting [6] is: FeLV assay, 50% growth inhibition, molar value, read-out: IC50 (in parentheses).

As for `CC(C)C1(CCC(C)(O)C2C(O)CC3C4CCC5CC(OS(=O)(=O)O)C(OS(=O)(=O)O)CC5(C)C4CCC32C)CC1C` (stereo not drawn) [HB99], the IC50 – broadly, the point on the concentration scale where inhibition reaches its midpoint – was 350 µg/mL (≈ 550 µM) in series [1], 350 µg/mL with CRFK cells and 514 µM in the series on CRFK cells (setting [6]). Further, in the series with murine splenocytes (Mus musculus, Splenocyte, 0.05 μg/ml, percent of positive control), the activity at 0.05 µg/mL was 126%. In the series on murine splenocytes (Mus musculus, Splenocyte, 5.00 μg/ml, percent of positive control), the activity at 5 µg/mL turned out to be 98%. Besides, the activity at 50 µg/mL in the series with murine splenocytes (Mus musculus, Splenocyte, 50.00 μg/ml, percent of positive control) stood at 19%. Further, in the series with murine splenocytes (Mus musculus, Splenocyte, 500.00 μg/ml, percent of positive control), the activity at 500 µg/mL was 0%. Further, in the series on murine splenocytes (at 50 μg/ml and 5 μg/ml, result in words), the “immunosuppressive activity (MLR <100% and LCV >70%)” value is “exhibited immunosuppressive activity”. Further, the TI in series [2] (in vitro therapeutic index, ratio of IC50/EC50, HIV) was found to be 70; in series [3] it was 17.5. For the same compound, the “activity against the AIDS virus” value in series [2] (result in words) is reported as “showed activity against the AIDS virus”. The midpoint of the response in series [3], the EC50, lay at 20 µg/mL (≈ 31.4 µM). Moreover, in series [3], the “activity against the feline leukemia virus” value was “showed activity against the feline leukemia virus”.
For `CC(CCC1(C(C)C)CC1C)C1C(O)CC2C3CCC4CC(OS(=O)(=O)O)C(OS(=O)(=O)O)CC4(C)C3CCC21CO` (stereo not drawn) [HB100], the IC50 is 185 µg/mL in the series on CRFK cells; 272 µM in the series on CRFK cells (setting [6]); 0.1 µg/mL (≈ 0.157 µM) in the series on P388 (Mus musculus, standard P388 assay). Besides, the “inhibition of growth of tumor cells” value in the series with P388 (result in words) is listed as “inhibit the growth of tumor cells”. In series [3], it took 26 µg/mL (≈ 40.8 µM) to reach a half-maximal effect (EC50). The TI in series [3] is recorded as 7.1. In series [3], the “activity against the feline leukemia virus” value is “showed activity against the feline leukemia virus”.
With `CCCC12OC3CC4C5CCC6CC(OS(=O)(=O)O)C(OS(=O)(=O)O)CC6(C)C5CCC4(C)C3C(C)(O1)C(CC1(C(C)C)CC1C)O2` (stereo not drawn) [HB124], the IC50 with CRFK cells is above 50 µg/mL; in the series with CRFK cells (setting [6]) it was above 68 µM. In addition, the activity result is given as “-” in series [4] (2 μg) and “++” in series [4] (20 μg). Besides, the “inhibition of viral growth” value in series [4] (20 μg, result in words) is reported as “significantly inhibit viral growth”. Further, in series [3], a half-maximal response (EC50) required 6.25 µg/mL (≈ 8.87 µM). In series [3], the TI is above 8. Further, the “activity against the feline leukemia virus” value in series [3] is on record as “showed activity against the feline leukemia virus”. For the same compound, the cytotoxicity in series [5] (2 μg) was found to be 0%; in series [5] (20 μg), 25%.
